Laboratory results reported in the NIST ThermoML archive (doi:10.1016/j.jct.2015.12.025).
± gives the expanded uncertainty stated by the source.

Assay: refractive index (Na D-line) (dimensionless); xn = mol fraction of the nth substance listed
Details: 102 kPa, Liquid, Standard Abbe refractometry

CC(C)(C)c1ccccc1 [(1,1-dimethylethyl)benzene] + C[Si]1(CCC(F)(F)F)O[Si](C)(CCC(F)(F)F)O[Si](C)(CCC(F)(F)F)O1
refractive index
Details	308.15 K	313.15 K	318.15 K	323.15 K
x2 = 0	1.48509 ± 0.00035	1.48256 ± 0.00035	1.48007 ± 0.00035	1.47754 ± 0.00035
x2 = 0.0476	1.47051 ± 0.00035	1.46805 ± 0.00035	1.4656 ± 0.00035	1.46312 ± 0.00035
x2 = 0.1	1.45684 ± 0.00035	1.45441 ± 0.00035	1.452 ± 0.00035	1.4496 ± 0.00035
x2 = 0.15	1.44555 ± 0.00035	1.44313 ± 0.00035	1.44079 ± 0.00035	1.4384 ± 0.00035
x2 = 0.2	1.4356 ± 0.00035	1.43327 ± 0.00035	1.43091 ± 0.00035	1.42856 ± 0.00035
x2 = 0.25	1.42681 ± 0.00035	1.4245 ± 0.00035	1.42218 ± 0.00035	1.41985 ± 0.00035
x2 = 0.2999	1.41901 ± 0.00035	1.41671 ± 0.00035	1.41444 ± 0.00035	1.41212 ± 0.00035
x2 = 0.3499	1.41199 ± 0.00035	1.40972 ± 0.00035	1.40747 ± 0.00035	1.40521 ± 0.00035
x2 = 0.3999	1.40568 ± 0.00035	1.40344 ± 0.00035	1.4012 ± 0.00035	1.39899 ± 0.00035
x2 = 0.45	1.39992 ± 0.00035	1.3977 ± 0.00035	1.39552 ± 0.00035	1.3933 ± 0.00035
x2 = 0.5	1.39466 ± 0.00035	1.39251 ± 0.00035	1.39033 ± 0.00035	1.38813 ± 0.00035
x2 = 0.5498	1.38992 ± 0.00035	1.38774 ± 0.00035	1.38566 ± 0.00035	1.3834 ± 0.00035
x2 = 0.6	1.38555 ± 0.00035	1.38337 ± 0.00035	1.38127 ± 0.00035	1.37906 ± 0.00035
x2 = 0.6499	1.38151 ± 0.00035	1.37934 ± 0.00035	1.37726 ± 0.00035	1.37512 ± 0.00035
x2 = 0.7001	1.37773 ± 0.00035	1.37562 ± 0.00035	1.37352 ± 0.00035	1.37141 ± 0.00035
x2 = 0.75	1.37427 ± 0.00035	1.3722 ± 0.00035	1.3701 ± 0.00035	1.36801 ± 0.00035
x2 = 0.7995	1.37106 ± 0.00035	1.36902 ± 0.00035	1.36693 ± 0.00035	1.36485 ± 0.00035
x2 = 0.8499	1.36804 ± 0.00035	1.36599 ± 0.00035	1.36394 ± 0.00035	1.36193 ± 0.00035
x2 = 0.8954	1.36548 ± 0.00035	1.36342 ± 0.00035	1.36142 ± 0.00035	1.35939 ± 0.00035
x2 = 0.9485	1.36268 ± 0.00035	1.36065 ± 0.00035	1.35863 ± 0.00035	1.35667 ± 0.00035
